For test [1], the target named is T1, human C-terminal DNMT3A (a.a. 623-908) (Homo sapiens, UniProt Q9Y6K1).
T1 construct: The human C-terminal DNMT3A (a.a. 623-908); made in house
In words: DNMT3A assay (restriction-based fluorescence). In kind it is biochemical. The note with it: for inhibition at 10 µM: read-out: DNMT3A (% of inhibition) 10 μM; for inhibition at 32 µM: read-out: DNMT3A (% of inhibition) 32 μM; for EC50: concentration range in triplicates; for inhibition at 20 µM: compound at 20 μM. The text has this:
DNMT3A enzyme inhibition was adapted from the restriction-based fluorescence assay protocol described in Ceccaldi et al. (ChemBioChem 2011, 12, 1337-45). Briefly, a 5′-labelled biotin oligonucleotide is hybridized to its complementary strand labelled with 6-carboxyfluorescein at the 3′-end into a 384 well microplate (black Optiplates; Perkin Elmer) pre-coated with avidin. The duplex contains a unique CpG site overlapping with a restriction site of a methylation sensitive restriction enzyme. The human C-terminal DNMT3A (a.a. 623-908), produced as described in Gros et al. (Nucleic Acids Research 2013 Aug. 25), was added in each well (200 ng/well) and mixed with the chemical compounds at desired concentrations and freshly prepared AdoMet (20 μM final concentration) to start the reaction in a total volume of 50 μL. After 1 hour incubation at 37° C. each well were washed three times with PBS, Tween-20 0.05%, NaCl (500 mM) and three more times with PBST. Specific fluorescent signals were detected with the methylation-sensitive restriction enzyme HpyCH4IV (NEB) as described and measured on a Perkin Elmer Envision detector. The percentage of inhibition is reported. The formula used to calculate the percentage of inhibition is [(X−Y)/X]×100, where X is the signal determined in the absence of the inhibitor and Y is the signal obtained in the presence of the inhibitor. The concentration at which 50% of efficacy of inhibition is observed (EC50) was determined by analysis of a concentration range of the tested compound in triplicates. The non-linear regression fittings with sigmoidal dose-response (variable slope) were performed with GraphPad Prism 4.03 (GraphPad Software).

Test [2] deals with T2, His-DNMT1 (182 kDa, human) (Homo sapiens, UniProt P26358).
T2 construct: His; made in house
In words: DNMT1 assay ([methyl-3H] SAM Flashplate). It is filed as biochemical. The note with it: for inhibition at 100 µM: read-out: DNMT1 (% of inhibition) 100 μM; for inhibition at 32 µM: read-out: DNMT1 (% of inhibition) 32 μM. As to the method: His-DNMT1 (182 kDa, human) was cloned, expressed and purified as described in Halby et al. (ChemBioChem 2012, 13, 157-65). The reaction was performed in a 10 μL total reaction volume in low volume NBS™ 384-well microplates (Corning), containing the tested compound (up to 1% DMSO), 1 μM of a SAM/[methyl-^3H] SAM (3 TBq/mmol, PerkinElmer) mix in a ratio of 3-to-1 (isotopic dilution 1*:3), 0.3 μM of biotinylated hemimethylated DNA duplex (5′-GATmCGCmCGATGmCGmCGAATmCGmCGAT mCGATGmCGAT-3′ and BIOT-5′-[…] ATC-3′), and 90 nM of DNMT1 in methylation buffer (20 mM HEPES pH 7.2, 1 mM EDTA, 50 mM KCl, 25 μg/mL BSA). The reaction was incubated at 37° C. for 2 hours. 8 μL are then transferred into a streptavidin 96-well scintillant coated Flashplate™ (PerkinElmer) containing 190 μL of 20 μM SAH in 50 mM Tris-HCl pH 7.4. The Flashplate™ was agitated at room temperature for 1 hour, washed three times with 200 μL of 0.05% Tween®-20 in 50 mM Tris-HCl pH 7.4, and read in 200 μL of 50 mM Tris-HCl pH 7.4 on TopCount NXT (PerkinElmer).

The term inhibition denotes how much of the control response was suppressed. The EC50 is the midpoint of the concentration-response curve. Read a high EC50 as weaker potency.

Read-outs that look alike come from different tables or passages of the source.

T1 sequence (Q9Y6K1 627-912 limits assumed): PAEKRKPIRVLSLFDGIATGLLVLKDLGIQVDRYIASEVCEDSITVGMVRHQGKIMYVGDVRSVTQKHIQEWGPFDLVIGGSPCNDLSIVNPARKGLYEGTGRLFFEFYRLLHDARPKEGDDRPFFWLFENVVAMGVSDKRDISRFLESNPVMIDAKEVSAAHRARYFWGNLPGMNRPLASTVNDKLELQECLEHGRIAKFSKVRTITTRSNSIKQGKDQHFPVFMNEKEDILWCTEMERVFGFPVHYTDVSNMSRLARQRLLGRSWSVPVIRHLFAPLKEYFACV
T2 sequence (P26358 whole entry): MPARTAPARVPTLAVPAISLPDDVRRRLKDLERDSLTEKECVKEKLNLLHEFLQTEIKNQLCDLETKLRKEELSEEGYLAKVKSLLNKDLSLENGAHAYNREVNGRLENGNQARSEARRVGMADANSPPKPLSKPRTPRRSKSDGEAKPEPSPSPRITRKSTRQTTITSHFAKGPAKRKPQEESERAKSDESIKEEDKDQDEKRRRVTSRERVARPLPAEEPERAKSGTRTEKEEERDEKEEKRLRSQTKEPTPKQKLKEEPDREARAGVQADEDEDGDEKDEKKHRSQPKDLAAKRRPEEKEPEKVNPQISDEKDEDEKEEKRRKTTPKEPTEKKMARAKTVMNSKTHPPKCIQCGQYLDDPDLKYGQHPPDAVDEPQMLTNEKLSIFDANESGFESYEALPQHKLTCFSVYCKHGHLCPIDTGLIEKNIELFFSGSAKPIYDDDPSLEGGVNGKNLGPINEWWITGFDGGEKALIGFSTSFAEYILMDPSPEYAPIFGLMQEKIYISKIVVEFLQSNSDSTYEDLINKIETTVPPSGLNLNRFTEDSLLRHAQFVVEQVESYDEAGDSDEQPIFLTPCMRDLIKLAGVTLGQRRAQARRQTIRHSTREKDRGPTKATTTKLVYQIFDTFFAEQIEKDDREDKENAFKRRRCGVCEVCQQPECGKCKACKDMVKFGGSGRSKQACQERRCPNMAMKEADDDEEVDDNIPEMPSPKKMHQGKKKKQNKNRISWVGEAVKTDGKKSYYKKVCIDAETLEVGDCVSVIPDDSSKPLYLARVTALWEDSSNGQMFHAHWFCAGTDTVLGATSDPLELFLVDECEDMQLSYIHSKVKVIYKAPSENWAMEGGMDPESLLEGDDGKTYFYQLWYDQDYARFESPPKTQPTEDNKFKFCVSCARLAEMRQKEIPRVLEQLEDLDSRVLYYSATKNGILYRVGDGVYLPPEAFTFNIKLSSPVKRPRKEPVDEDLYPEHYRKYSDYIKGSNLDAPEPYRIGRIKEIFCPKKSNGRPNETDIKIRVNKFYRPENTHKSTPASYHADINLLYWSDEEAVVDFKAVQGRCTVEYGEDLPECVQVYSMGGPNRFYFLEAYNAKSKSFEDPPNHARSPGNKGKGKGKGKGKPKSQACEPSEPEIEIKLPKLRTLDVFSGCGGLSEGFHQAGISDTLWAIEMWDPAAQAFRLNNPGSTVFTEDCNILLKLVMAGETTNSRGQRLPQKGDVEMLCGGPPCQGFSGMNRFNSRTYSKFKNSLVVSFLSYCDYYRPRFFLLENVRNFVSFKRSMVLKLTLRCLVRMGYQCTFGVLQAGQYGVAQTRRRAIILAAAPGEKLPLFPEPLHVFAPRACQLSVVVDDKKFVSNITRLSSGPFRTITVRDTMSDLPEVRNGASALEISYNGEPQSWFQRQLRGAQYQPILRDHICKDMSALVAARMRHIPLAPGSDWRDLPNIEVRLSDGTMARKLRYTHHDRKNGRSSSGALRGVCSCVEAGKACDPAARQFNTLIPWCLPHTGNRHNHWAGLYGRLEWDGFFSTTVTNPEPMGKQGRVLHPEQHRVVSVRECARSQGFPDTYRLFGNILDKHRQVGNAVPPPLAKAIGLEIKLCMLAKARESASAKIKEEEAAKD

Take `Clc1cccc(CCNc2ncnc3cc(OCC4CCN(CCNc5ccnc6ccccc56)CC4)ccc23)c1` [AA, 4-(2-(3-chlorophenyl)ethylamino)-7-((1-(2-(quinolin-4-ylamino)ethyl)piperidin-4-yl)methoxy)quinazoline]: the inhibition at 10 µM in test [1] (compound at 10 μM) is 82%. In addition, the inhibition at 32 µM in test [1] (compound at 32 μM) amounted to 91%. Besides, it took 2700 nM to reach a half-maximal effect in test [1] (EC50). For the same compound, the inhibition at 100 µM in test [2] (compound at 100 μM) was found to be 97%.
For the compound `Clc1ccccc1CCNc1ncnc2cc(OCC3CCN(CCNc4ccnc5ccccc45)CC3)ccc12` [AB, 4-(2-(2-chlorophenyl)ethylamino)-7-((1-(2-(quinolin-4-ylamino)ethyl)piperidin-4-yl)methoxy)quinazoline], the inhibition at 32 µM turned out to be 100% in test [1] (compound at 32 μM) and 42% in test [2] (compound at 32 μM). For the same compound, the inhibition at 100 µM in test [2] (compound at 100 μM) came out at 97%.
Regarding `Clc1ccc(CCNc2ncnc3cc(OCC4CCN(CCNc5ccnc6ccccc56)CC4)ccc23)cc1` [AC, 4-(2-(4-chlorophenyl)ethylamino)-7-((1-(2-(quinolin-4-ylamino)ethyl)piperidin-4-yl)methoxy)quinazoline], the inhibition at 10 µM in test [1] (compound at 10 μM) was determined as 88%. The inhibition at 32 µM in test [1] (compound at 32 μM) came to 100%; in test [2] (compound at 32 μM), 75%. Also, the EC50 in test [1] stood at 1900 nM. In addition, in test [2] (compound at 100 μM), the inhibition at 100 µM turned out to be 97%.
In the case of `NS(=O)(=O)c1ccc(CCNc2ncnc3cc(OCC4CCN(CCNc5ccnc6ccccc56)CC4)ccc23)cc1` [AD, 4-(2-(4-sulfonamidophenyl)ethylamino)-7-((1-(2-(quinolin-4-ylamino)ethyl)piperidin-4-yl)methoxy)quinazoline], the inhibition at 32 µM in test [1] (compound at 32 μM) turned out to be 93%; in test [2] (compound at 32 μM), 59%. The inhibition at 100 µM in test [2] (compound at 100 μM) is 100%.
For the compound `O=[N+]([O-])c1ccc(CCNc2ncnc3cc(OCC4CCN(CCNc5ccnc6ccccc56)CC4)ccc23)cc1` [AE, 4-(2-(4-nitrophenyl)ethylamino)-7-((1-(2-(quinolin-4-ylamino)ethyl)piperidin-4-yl)methoxy)quinazoline], in test [1] (compound at 10 μM), the inhibition at 10 µM is 61%. For the same compound, the inhibition at 32 µM in test [1] (compound at 32 μM) worked out at 72%; in test [2] (compound at 32 μM), 54%. In addition, the concentration for a half-maximal effect (EC50) in test [1] was determined as 1100 nM. Besides, the inhibition at 100 µM in test [2] (compound at 100 μM) was 74%.
For the compound `CC(C)c1ccc(CCNc2ncnc3cc(OCC4CCN(CCNc5ccnc6ccccc56)CC4)ccc23)cc1` [AF, 4-(2-(4-isopropylphenyl)ethylamino)-7-((1-(2-(quinolin-4-ylamino)ethyl)piperidin-4-yl)methoxy)quinazoline], the inhibition at 10 µM in test [1] (compound at 10 μM) was 53%. In test [1] (compound at 32 μM), the inhibition at 32 µM is 83%.
Take `COc1ccc(CCNc2ncnc3cc(OCC4CCN(CCNc5ccnc6ccccc56)CC4)ccc23)cc1` [AG, 4-(2-(4-methoxyphenyl)ethylamino)-7-((1-(2-(quinolin-4-ylamino)ethyl)piperidin-4-yl)methoxy)quinazoline]: the inhibition at 10 µM in test [1] (compound at 10 μM) amounted to 82%. Moreover, the inhibition at 32 µM in test [1] (compound at 32 μM) turned out to be 100%; in test [2] (compound at 32 μM), 77%. The inhibition at 100 µM in test [2] (compound at 100 μM) turned out to be 59%.
As to `Nc1ccc(CCNc2ncnc3cc(OCC4CCN(CCNc5ccnc6ccccc56)CC4)ccc23)cc1` [AH, 4-(2-(4-aminophenyl)ethylamino)-7-((1-(2-(quinolin-4-ylamino)ethyl)piperidin-4-yl)methoxy)quinazoline], the inhibition at 10 µM in test [1] (compound at 10 μM) is 68%. Besides, the inhibition at 32 µM in test [1] (compound at 32 μM) was determined as 96%; in test [2] (compound at 32 μM), 59%. Moreover, the inhibition at 100 µM in test [2] (compound at 100 μM) was determined as 97%.
`c1ccc2c(NCCNc3ncnc4cc(OCC5CCN(CCNc6ccnc7ccccc67)CC5)ccc34)ccnc2c1` [AI]: the inhibition at 10 µM in test [1] (compound at 10 μM) came to 86%. For the same compound, the inhibition at 32 µM in test [1] (compound at 32 μM) and in test [2] (compound at 32 μM) was 99% each time. Moreover, the 50% effective concentration (EC50) in test [1] amounted to 1000 nM. For the same compound, the inhibition at 100 µM in test [2] (compound at 100 μM) came to 99%.
On to `c1ccc(NCCNc2ncnc3cc(OCC4CCN(CCNc5ccnc6ccccc56)CC4)ccc23)cc1` [AK, 4-(2-(phenylamino)ethylamino)-7-((1-(2-(quinolin-4-ylamino)ethyl)piperidin-4-yl)methoxy)quinazoline], for which the inhibition at 10 µM in test [1] (compound at 10 μM) was found to be 76%. Also, the inhibition at 32 µM in test [1] (compound at 32 μM) worked out at 5%; in test [2] (compound at 32 μM) it was 93%. In addition, the inhibition at 100 µM in test [2] (compound at 100 μM) came out at 93%.
Turning to `c1ccc(CN2CCC(Nc3ncnc4cc(OCC5CCN(CCNc6ccnc7ccccc67)CC5)ccc34)CC2)cc1` [AL], the inhibition at 10 µM in test [1] (compound at 10 μM) was determined as 72%. In addition, the inhibition at 32 µM in test [1] (compound at 32 μM) is 93%; in test [2] (compound at 32 μM) it was 81%. In addition, in test [1], the EC50 was determined as 8000 nM. For the same compound, the inhibition at 100 µM in test [2] (compound at 100 μM) worked out at 81%.
Take `Clc1ccc2c(NCCN3CCC(COc4ccc5c(NCCCc6ccccc6)ncnc5c4)CC3)ccnc2c1` [AO, 4-((3-phenylpropyl)amino)-7-((1-(2-(7-chloroquinolin-4-ylamino)ethyl)piperidin-4-yl)methoxy)quinazoline]: in test [1], the inhibition at 10 µM turned out to be 70% and the inhibition at 32 µM was determined as 62%. Besides, the inhibition at 100 µM in test [2] amounted to 79%.
Regarding `COc1ccc2c(NCCN3CCC(COc4ccc5c(NCCCc6ccccc6)ncnc5c4)CC3)ccnc2c1` [AP, 4-((3-phenylpropyl)amino)-7-((1-(2-(7-methoxyquinolin-4-ylamino)ethyl)piperidin-4-yl)methoxy)quinazoline], in test [1], the EC50 worked out at 2600 nM, the inhibition at 10 µM came to 70% and the inhibition at 32 µM stood at 80%. Further, the inhibition at 100 µM in test [2] is 90%.
Consider `COc1cc2nccc(NCCN3CCC(COc4ccc5c(NCCCc6ccccc6)ncnc5c4)CC3)c2cc1OC` [AQ, 4-((3-phenylpropyl)amino)-7-((1-(2-(6,7-dimethoxyquinolin-4-ylamino)ethyl)piperidin-4-yl)methoxy)quinazoline], for which, in test [1], the inhibition at 10 µM is 95% and the inhibition at 32 µM is 95%. Moreover, in test [2], the inhibition at 32 µM worked out at 61% and the inhibition at 100 µM was found to be 100%.
Take `CN(CCN1CCC(COc2ccc3c(NCCCc4ccccc4)ncnc3c2)CC1)c1ccnc2ccccc12` [AR, 4-((3-phenylpropyl)amino)-7-((1-(2-(methyl(quinolin-4-yl)amino)ethyl)piperidin-4-yl)methoxy)quinazoline]: in test [1], the concentration for a half-maximal effect (EC50) was found to be 4700 nM, the inhibition at 10 µM is 66% and the inhibition at 32 µM is 66%.
Take `c1ccc(CCCNc2ncnc3cc(OCC4CCN(CCNc5ccc6ncccc6c5)CC4)ccc23)cc1` [AS, 4-((3-phenylpropyl)amino)-7-((1-(2-(quinolin-6-ylamino)ethyl)piperidin-4-yl)methoxy)quinazoline]: in test [1], the inhibition at 10 µM turned out to be 60% and the inhibition at 32 µM came to 60%.
Take `Nc1ccc(NCCN2CCC(COc3ccc4c(NCCCc5ccccc5)ncnc4c3)CC2)cc1` [Compound AN]: the inhibition at 32 µM in test [1] (compound at 32 μM) is 65%.
In the case of `O=CN(CCCNc1ccnc2ccccc12)CCCOc1ccc2c(NCCCc3ccccc3)ncnc2c1` [Compound E, N-(3-((4-((3-phenylpropyl)amino)quinazolin-7-yl)oxy)propyl)-N-(3-(quinolin-4-ylamino)propyl)formamide], the inhibition at 20 µM in test [1] is 27%. Also, in test [1] (compound at 32 μM), the inhibition at 32 µM came to 51%.
With `COCn1ccc(NCCN2CCC(COc3ccc4c(NCCCc5ccccc5)ncnc4c3)CC2)nc1=O` [Compound K, 1-(methoxymethyl)-N^4-(2-(4-(((4-((3-phenylpropyl)amino)quinazolin-7-yl)oxy)methyl)piperidin-1-yl)ethyl)cytosine], in test [1] (compound at 10 μM), the inhibition at 10 µM came to 10%. In test [1], this compound registered an inhibition at 20 µM of 40%. Besides, in test [1] (compound at 32 μM), the inhibition at 32 µM was 44%.

(Values after patent US9951044B2, “Quinazoline derivatives and their use as DNA methyltransferase inhibitors” (PIERRE FABRE MEDICAMENT, priority 2013, dated 2018).)
